{"source": "patent US8143241B2", "about": "“DNA damage repair inhibitors for treatment of cancer” (Kudos Pharmaceuticals Limited, priority 2003, dated 2012)", "key": {"[1]": {"test_system": "HeLa cells transfected with ATM, ATR, CHK1 or CHK2 silencing RNAi", "assay": "Cell viability, HeLa cells transfected with ATM, ATR, CHK1 or CHK2 silencing RNAi", "type": "cell-based, human", "settings": "five days", "procedure": "(§1) For cell viability assays, HeLa cells were co-transfected with pSUPER and pEFBsd in 96 well plates using FuGene (Roche, USA) according to the manufacturers instructions. Twenty-four hours after transfection, cells were plated into replica plates and this was followed by treatment with PARP inhibitors and blasticidin 48 hours post transfection. Media containing PARP inhibitors and blasticidin was replenished five days post-transfection and cell viability was measured at seven days using the 96 well plate CellTitre-Glo™ Luminescent Cell Viability Assay kit (Promega, USA, according to the manufacturers instructions)."}, "[2]": {"test_system": "Brca2 deficient ES cells", "assay": "Clonogenic assay, continuous exposure, Brca2 deficient ES cells", "type": "cell-based, mouse", "procedure": "(§2) For measurement of sensitivity to chemical inhibitors, cell cultures e.g. ES cells or mouse embryonic fibroblasts, in exponential growth were trypsinised and seeded at various densities in 6-well plates onto confluent monolayer of Mitomycin C (MMC) inactivated mouse embryonic fibroblasts and, where appropriate, treated with inhibitors after 18 h. For continuous exposure, cells were re-fed every 4 days with fresh medium and inhibitor. For timed exposures, inhibitor was added for the specified period then cells were washed and re-fed with fresh medium. After 10-14 days, cells were washed with PBS, fixed in methanol and stained with crystal violet. Colonies containing greater than approximately 50 cells were counted. Experiments were performed at least three times in triplicate."}, "[3]": {"test_system": "RAD51 siRNA transfected HeLa cells", "assay": "Clonogenic survival, HeLa cells with RAD51 RNAi silencing", "type": "cell-based, human", "settings": "continuous treatment", "text": "Clonogenic survival curves of transfected HeLa cells under constant exposure to a range of concentrations of PARP inhibitor (KU0058684) for 12-14 days. […] SF50 for pSUPER-CFP-CONTROL transfected cells is >1×10^−5 M and is 1×10^−6 M for pSUPER-CFP-17/19/23 transfected cells.\nHeLa cells were transfected using FuGene (Roche, USA) according to the manufacturers instructions. For clonogenic survival assays, cells were co-transfected in 6 well plates with pSUPER and a vector expressing blasticidin resistance (pEF-Bsd, Invitrogen, USA) at a ratio of 10:1 (pSUPER: pEF-Bsd). Twenty-four hours after transfection, cells were plated into replica plates and this was followed by treatment with PARP inhibitors and blasticidin 48 hours post transfection."}, "[4]": {"test_system": "HeLa cells transfected with DSS1 and RPA siRNA plasmids", "assay": "Cell viability, HeLa cells transfected with DSS1 and RPA siRNA plasmids", "type": "cell-based, human", "procedure": "as §1"}, "[5]": {"test_system": "tankyrase", "settings": "at concentrations up to 1 μM"}, "[6]": {"biological_target": "vault PARP (Homo sapiens, UniProt Q9UKK3)", "sequence (Q9UKK3 whole entry)": "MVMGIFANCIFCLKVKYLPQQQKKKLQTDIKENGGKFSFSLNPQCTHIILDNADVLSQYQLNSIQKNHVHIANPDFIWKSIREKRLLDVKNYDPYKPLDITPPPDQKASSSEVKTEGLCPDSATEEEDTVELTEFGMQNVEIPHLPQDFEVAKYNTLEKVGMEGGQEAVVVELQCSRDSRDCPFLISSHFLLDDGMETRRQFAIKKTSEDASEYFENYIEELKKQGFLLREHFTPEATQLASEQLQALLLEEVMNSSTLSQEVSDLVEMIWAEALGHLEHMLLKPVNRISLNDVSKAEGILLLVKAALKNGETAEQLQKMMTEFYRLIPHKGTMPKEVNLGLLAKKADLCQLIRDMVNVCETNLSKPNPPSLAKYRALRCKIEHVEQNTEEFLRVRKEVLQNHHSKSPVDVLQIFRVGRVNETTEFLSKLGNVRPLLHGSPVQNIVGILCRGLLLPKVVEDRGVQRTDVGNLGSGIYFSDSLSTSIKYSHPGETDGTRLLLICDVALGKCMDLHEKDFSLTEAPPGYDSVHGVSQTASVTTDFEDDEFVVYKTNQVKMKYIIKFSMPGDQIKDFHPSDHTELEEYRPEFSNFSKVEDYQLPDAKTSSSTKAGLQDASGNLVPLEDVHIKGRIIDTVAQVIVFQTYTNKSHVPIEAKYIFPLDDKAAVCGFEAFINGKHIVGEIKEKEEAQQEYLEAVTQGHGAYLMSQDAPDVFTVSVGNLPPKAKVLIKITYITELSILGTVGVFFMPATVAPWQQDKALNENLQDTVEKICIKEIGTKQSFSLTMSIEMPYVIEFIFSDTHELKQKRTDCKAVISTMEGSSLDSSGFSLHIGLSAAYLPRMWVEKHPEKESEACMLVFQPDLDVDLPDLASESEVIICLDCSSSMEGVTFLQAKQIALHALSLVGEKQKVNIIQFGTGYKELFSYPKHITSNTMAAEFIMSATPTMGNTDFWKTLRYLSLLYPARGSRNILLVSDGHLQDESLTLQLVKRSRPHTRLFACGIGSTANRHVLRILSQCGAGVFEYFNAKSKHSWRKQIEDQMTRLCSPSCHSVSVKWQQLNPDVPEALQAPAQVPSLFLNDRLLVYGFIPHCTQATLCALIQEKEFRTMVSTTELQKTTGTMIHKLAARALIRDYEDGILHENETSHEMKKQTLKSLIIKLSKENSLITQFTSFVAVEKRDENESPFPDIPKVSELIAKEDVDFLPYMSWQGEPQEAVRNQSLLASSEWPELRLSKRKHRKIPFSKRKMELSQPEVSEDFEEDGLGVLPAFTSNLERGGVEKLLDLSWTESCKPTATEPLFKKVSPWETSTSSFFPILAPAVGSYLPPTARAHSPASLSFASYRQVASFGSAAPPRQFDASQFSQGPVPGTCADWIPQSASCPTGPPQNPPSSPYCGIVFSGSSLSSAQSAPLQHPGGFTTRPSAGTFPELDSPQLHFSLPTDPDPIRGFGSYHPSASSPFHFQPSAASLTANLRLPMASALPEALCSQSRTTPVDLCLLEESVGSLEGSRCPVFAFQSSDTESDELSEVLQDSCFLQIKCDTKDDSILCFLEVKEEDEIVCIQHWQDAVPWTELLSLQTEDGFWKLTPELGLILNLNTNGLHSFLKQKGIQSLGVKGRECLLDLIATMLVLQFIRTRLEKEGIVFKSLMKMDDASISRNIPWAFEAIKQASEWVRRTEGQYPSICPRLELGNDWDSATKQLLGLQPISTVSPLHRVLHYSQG", "assay": "Selectivity: vault PARP inhibition", "type": "biochemical", "settings": "at concentrations up to 1 μM"}, "[7]": {"test_system": "HeLa cells with BRCA1, BRCA2 and RAD51 silencing", "assay": "Cell viability, HeLa cells with BRCA1, BRCA2 or RAD51 silencing", "type": "cell-based, human", "settings": "five days", "procedure": "as §1"}, "[8]": {"biological_target": "PARP-3 (Homo sapiens, UniProt Q9Y6F1)", "sequence (Q9Y6F1 whole entry, species assumed)": "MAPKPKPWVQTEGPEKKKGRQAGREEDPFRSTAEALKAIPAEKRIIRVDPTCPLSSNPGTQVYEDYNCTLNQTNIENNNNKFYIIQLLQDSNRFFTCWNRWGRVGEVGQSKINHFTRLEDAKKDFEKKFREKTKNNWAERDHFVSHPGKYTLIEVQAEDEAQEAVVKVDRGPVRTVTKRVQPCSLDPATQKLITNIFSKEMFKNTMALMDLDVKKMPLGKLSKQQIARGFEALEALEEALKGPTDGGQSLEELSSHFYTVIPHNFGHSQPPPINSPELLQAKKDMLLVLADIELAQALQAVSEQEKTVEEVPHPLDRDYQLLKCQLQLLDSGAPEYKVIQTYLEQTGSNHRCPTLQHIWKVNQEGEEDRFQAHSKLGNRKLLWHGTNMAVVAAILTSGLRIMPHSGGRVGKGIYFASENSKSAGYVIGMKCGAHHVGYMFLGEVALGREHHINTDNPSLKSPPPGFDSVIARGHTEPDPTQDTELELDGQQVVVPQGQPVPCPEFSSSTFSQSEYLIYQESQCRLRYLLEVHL", "assay": "Selectivity: PARP-3 inhibition", "type": "biochemical", "settings": "at concentrations up to 1 μM"}, "[9]": {"test_system": "Fancd2−/−, Fanca−/−, Fancc−/− and Fanca−/−c−/− fibroblasts", "assay": "Clonogenic survival, Fanconi anaemia mouse fibroblasts", "type": "cell-based", "settings": "continuous exposure 12-14 days", "procedure": "Mouse fibroblasts from wild-type, Fancd2^−/−, Fanca^−/−, Fancc^−/− and Fanca^−/−c^−/− animals were obtained from the Fanconi Anaemia Cell Repository, Oregon Health and Science University. These cells were maintained in DMEM, supplemented with FCS (10% v/v), glutamine and antibiotics. RAD54 and RAD52 Embryonic Stem (ES) cells were grown in DMEM, supplemented with FCS (15% v/v), glutamine, antibiotics, non-essential amino acids, 2-mercaptoethanol and Leukemia inhibitory Factor. HeLa cells (CCL-2) were obtained from ATCC (USA) and were maintained in DMEM, supplemented with FCS (10% v/v), glutamine and antibiotics.\nas §2"}, "[10]": {"test_system": "Brca1 deficient ES cells", "assay": "Clonogenic assay, continuous exposure, Brca1 deficient ES cells", "type": "cell-based, mouse", "procedure": "as §2"}, "[11]": {"biological_target": "PARP-2 (Homo sapiens, UniProt Q9UGN5)", "sequence (Q9UGN5 whole entry)": "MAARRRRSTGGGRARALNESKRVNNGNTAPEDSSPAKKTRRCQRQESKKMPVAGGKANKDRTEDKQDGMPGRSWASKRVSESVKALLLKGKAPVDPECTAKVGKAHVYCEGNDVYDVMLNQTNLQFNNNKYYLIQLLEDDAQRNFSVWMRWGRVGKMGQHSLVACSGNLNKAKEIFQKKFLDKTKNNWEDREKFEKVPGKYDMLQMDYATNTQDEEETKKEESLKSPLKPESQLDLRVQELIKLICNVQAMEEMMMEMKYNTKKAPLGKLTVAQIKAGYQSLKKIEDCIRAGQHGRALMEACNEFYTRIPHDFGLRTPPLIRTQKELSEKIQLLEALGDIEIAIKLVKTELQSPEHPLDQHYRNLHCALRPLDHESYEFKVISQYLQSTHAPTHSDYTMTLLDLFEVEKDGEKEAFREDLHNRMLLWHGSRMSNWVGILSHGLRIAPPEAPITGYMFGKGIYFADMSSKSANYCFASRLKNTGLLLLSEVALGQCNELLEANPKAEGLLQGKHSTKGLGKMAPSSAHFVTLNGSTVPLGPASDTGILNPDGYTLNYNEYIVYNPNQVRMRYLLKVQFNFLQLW", "assay": "Inhibition of poly(ADP-ribose) polymerase activity of PARP-2", "type": "biochemical"}, "[12]": {"test_system": "Rad52 deficient ES cells", "assay": "Clonogenic survival, Rad52 deficient ES cells", "type": "cell-based", "procedure": "as §2"}, "[13]": {"test_system": "HeLa cells", "assay": "Cell viability, HeLa cells exposed to PARP inhibitor and caffeine", "settings": "1 mM Caffeine plus KU0058684"}, "[14]": {"test_system": "HT29 cells", "assay": "SRB cell growth assay, ATM/PARP inhibitor combination", "type": "cell-based", "settings": "KU-0059436 plus KU-60019", "procedure": "(§3) Cell growth was assessed using the sulforhodamine B (SRB) assay (Skehan, P. et al (1990) J. Natl. Cancer Inst. 82, 1107-1112) 2,000 cells were seeded into each well of a flat-bottomed 96-well microtiter plate in a volume of […] and incubated for 6 hours at 37° C. Cells were either replaced with media alone or with media containing PARP inhibitor or ATM inhibitor or both at a range of concentrations shown. Cells were then allowed to grow for a further 96 hours after which the media was removed and the cells fixed with […] of ice cold 10% (w/v) trichloroacetic acid. The plates were incubated at 4° C. for 20 minutes and then washed four times with water. Each well of cells was then stained with […] of 0.4% (w/v) SRB in 1% acetic acid for 20 minutes before washing four times with 1% acetic acid. Plates were then dried for 2 hours at room temperature. The dye from the stained cells was solubilized by the addition of […] of 10 mM Tris Base into each well. Plates were gently shaken and left at room temperature for 30 minutes before measuring the optical density at 564 nm on a Microquant microtiter plate reader."}, "[15]": {"test_system": "NBS1−/− fibroblast cells", "assay": "SRB cell growth assay, NBS1 deficient fibroblasts vs MRC5", "type": "cell-based", "procedure": "as §3"}, "[16]": {"test_system": "FT/pEBS7 ATM−/− cells", "assay": "SRB cell growth assay, ATM deficient vs complemented cells", "type": "cell-based", "settings": "FT/pEBS7 ATM−/− vs FT/pEBS7-Y25 ATM+/+", "procedure": "as §3"}}}
{"smiles": "O=C(c1cc(Cc2n[nH]c(=O)c3ccccc23)ccc1F)N1CCCNCC1", "note": "[KU0058948]", "values": [{"measurement": "sensitivity of ATM, ATR, CHK1, CHK2 siRNA transfected HeLa cells compared to control plasmid", "setting": "[1]", "result": "increased sensitivity"}, {"measurement": "sensitivity of Brca2 mutant cells relative to KU0058684", "setting": "[2]", "result": "even greater than that of KU0058684"}, {"measurement": "sensitivity of Brca2 deficient cells compared to otherwise isogenic cells", "setting": "[2]; clonogenic assay", "result": "extremely sensitive"}, {"measurement": "clonogenic survival of RAD51 siRNA transfected cells compared to control transfected cells", "setting": "[3]", "result": "significant reduction in the clonogenic survival"}, {"measurement": "sensitivity of DSS1 and RPA siRNA transfected cells compared to control plasmid", "setting": "[4]", "result": "enhanced sensitivity"}, {"measurement": "inhibition of tankyrase", "setting": "[5]", "result": "do not inhibit"}, {"measurement": "inhibition of vault PARP", "setting": "[6]", "result": "do not inhibit"}, {"measurement": "sensitivity to PARP inhibition after BRCA1, BRCA2 and RAD51 silencing", "setting": "[7]", "result": "profound sensitivity"}, {"measurement": "inhibition of PARP-3", "setting": "[8]", "result": "do not inhibit"}, {"measurement": "sensitivity of FA gene deficient fibroblasts compared to wild-type cells", "setting": "[9]", "result": "results in sensitivity"}, {"measurement": "sensitivity of Brca1 mutant cells relative to KU0058684", "setting": "[10]", "result": "even greater than that of KU0058684"}, {"measurement": "sensitivity of Brca1 deficient cells compared to otherwise isogenic cells", "setting": "[10]; clonogenic assay", "result": "extremely sensitive"}, {"measurement": "inhibition of poly(ADP-ribose) polymerase activity of PARP-1 and PARP-2", "setting": "[11]", "result": "potent and specific inhibitors"}, {"measurement": "sensitivity of Rad52 deficient ES cells compared to wild-type cells", "setting": "[12]", "result": "no more sensitive"}]}
{"smiles": "Cn1c(=O)c2c(ncn2C)n(C)c1=O", "note": "[Caffeine, reference compound]", "values": [{"measurement": "sensitivity of HeLa cells to PARP inhibitor with caffeine", "setting": "[13]", "result": "increased sensitivity"}]}
{"smiles": "O=C(c1cc(Cc2n[nH]c(=O)c3ccccc23)ccc1F)N1CCN(C(=O)C2CC2)CC1", "note": "[KU0059436]", "values": [{"measurement": "sensitivity to PARP inhibition with ATM inhibitor combination", "setting": "[14]", "result": "Sensitivity to PARP inhibition was observed to increase with increasing concentrations of ATMI"}, {"measurement": "sensitivity of NBS1 deficient cells compared to wild-type cells", "setting": "[15]", "result": "more sensitive"}, {"measurement": "sensitivity of ATM deficient cells compared to wild-type cells", "setting": "[16]", "result": "more sensitive"}]}
{"smiles": "C[C@@H]1CN(CC(=O)Nc2ccc3c(c2)Cc2cccc(-c4cc(=O)cc(N5CCOCC5)o4)c2S3)C[C@H](C)O1", "note": "[KU-60019, reference compound]", "values": [{"measurement": "sensitivity to PARP inhibition with ATM inhibitor combination", "setting": "[14]", "result": "Sensitivity to PARP inhibition was observed to increase with increasing concentrations of ATMI"}]}
